The results in this text go back to patent US20240124478A1, “SPIROCYCLIC-SUBSTITUTED 6,7-DIHYDRO-PYRANO[2,3-d]PYRIMIDINE INHIBITORS OF KRAS G12C MUTANT” (Merck Sharp & Dohme LLC, priority 2020, published 2024).

The test system of one experiment is NCI-H358 cells. The experiment can be described thus: Cellular phospho-ERK assay. It counts as cell-based. The conditions noted are these: 2 hour incubation, ratio of p-Erk vs total Erk, read-out: IC50 (nM) pERK (Cell). As to the method:
NCI-H358 cells (ATCC® CRL-5807™) were cultured in T150 flask in growth medium (RPMI medium 1640-(ThermoFisher Scientific 61870) containing 10% fetal bovine serum (ThermoFisher Scientific 10091148)). The cells were harvested in growth medium after TrypLE (ThermoFisher scientific 12604021) digestion and were seeded in 384-well collagen coated cell culture plate (Corning 356702) at a density of 15,000 cells/well, and incubated at 37° C., 5% CO2 overnight. The compound dose-response titrations were prepared and appropriate amounts of compounds were dispensed in a 384-well intermediate plate using an Echo 550 liquid handler. RPMI medium 1640-GlutaMAX™-I were added to the intermediate plate and transferred to 384-well cell culture plate, which was incubated at 37° C., 5% CO2 for 2 hours. After removal of medium from the plate, cells were lysed in lysis buffer from SureFire® Ultra™ Multiplex p-Erk and total Erk assay kit (PerkinElmer MPSU-PTERK) containing Halt™ Protease and Phosphotase inhibitor cocktail (ThermoFisher Scientific 78446) at room temperature with constant shaking at 300 rpm for 30 minutes. The cell lysates were then transferred to OptiPlate-384 plate (PerkinElmer 6005620) and the phosphorylation of Erk and total Erk levels were detected by Alpha SureFire Ultra Multiplex p-Erk kit PerkinElmer MPSU-PTERK) following the manufacturer's protocol. Assay plates were read on an EnVision Multimode Plate Reader (PerkinElmer), and the ratio of p-Erk vs total Erk in each well was used as the final readout. Dose response curves were analyzed using a 4-parameter logistic model to calculate IC50 values using spotfire software.

Experiment [1] has as its target recombinant biotinylated KRAS protein containing G12C/C51S/C80L/C118S mutations (Biotinylated KRAS G12C protein) (Homo sapiens (Human), UniProt P01116, C118S/C51S/C80L/G12C). The experiment can be described thus: SOS-catalyzed nucleotide exchange assay (TR-FRET). In kind it is biochemical. The conditions noted are these: apparent potency; preincubation time of 60 minutes prior to addition of SOS. As to the method:
The SOS-catalyzed nucleotide exchange assay utilizes a preformed complex of recombinant biotinylated KRAS protein containing G12C/C51S/C80L/C118S mutations (183 amino acids; biotin on K10; leader sequence which is an AviTag; referred to as SEQ ID NO: 1 or “Biotinylated KRAS G12C protein” hereafter), Bodipy-GDP, and Terbium-streptavidin. Compounds are added to this complex and then after 60 minutes incubation time, the mixture is treated with recombinant SOS protein and unlabeled GTP. Small molecule inhibitors stabilize the Bodipy-GDP complex whereas the untreated protein rapidly exchanges Bodipy-GDP for unlabeled GTP resulting in reduced TR-FRET signal.
Biotinylated KRAS G12C protein (SEQ ID NO: 1) is diluted to 2 μM in an EDTA buffer (20 mM HEPES, 150 mM sodium chloride, 10 mM EDTA, and 0.01% Tween) and incubated at room temperature for one hour. This mixture is then further diluted to 90 nM in an assay buffer (20 mM HEPES, 150 mM sodium chloride, 10 mM magnesium chloride, and 0.005% Tween) containing 15 nM of Terbium-Streptavidin (Invitrogen, catalog #PV3577) and 900 nM of Bodipy-GDP and incubated at room temperature for six hours. This solution is referred to as Biotinylated KRAS G12C mixture.
Each test compound (10 mM stock in DMSO) is diluted in DMSO to make a 10-point, 3-fold dilution series in a 384-well low dead volume microplate (Labcyte, catalog #LP-0200). Once titrations are made, 10 nL of the diluted compounds is acoustically dispensed into a 384-well plate (Corning, catalog #3820) using an Echo 550 (Labcyte).
Each well of the plate receives 3 μL Biotinylated KRAS G12C mixture that had been incubating for six hours and 3 μL of assay buffer using a BioRAPTR (Beckman Coulter) and is incubated at room temperature for 60 minutes. Each well then receives 3 μL of 240 nM recombinant human SOS protein and 9 mM GTP (Sigma, G8877) in assay buffer and is incubated at room temperature for 60 minutes.
The time-resolved fluorescence resonance energy transfer signal of the plate is measured on an Envision (PerkinElmer) plate reader: Excitation filter=340 nm; emission1=495 nm; emission2=520 nm; dichroic mirror=D400/D505; delay time=100 μs. The signal of each well is determined as the ratio of the emission at 520 nm to that at 495 nm. Percent effect of each well is determined after normalization to control wells containing DMSO (no effect) or a saturating concentration of inhibitor (max effect). The apparent effect as a function of compound concentration is fit to a four parameter logistic equation.
For orientation: TR-FRET usually uses a lanthanide donor and a delayed reading to cut background.

Molecules are shown by their SMILES. Where two headings read alike, the source gives them in different places.

Chain of recombinant biotinylated KRAS protein containing G12C/C51S/C80L/C118S mutations (Biotinylated KRAS G12C protein) (P01116 other isoform, or with tags, fused parts or gaps, stated change not applied): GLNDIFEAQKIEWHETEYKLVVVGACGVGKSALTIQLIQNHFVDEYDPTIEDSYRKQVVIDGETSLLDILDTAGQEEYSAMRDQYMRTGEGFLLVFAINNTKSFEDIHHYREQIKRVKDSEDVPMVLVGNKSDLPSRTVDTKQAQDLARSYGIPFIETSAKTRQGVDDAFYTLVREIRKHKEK

As for `C=CC(=O)N1CCN(c2nc(OCC[C@@H]3CCCN3C)nc3c2CCC2(CCCc4ccccc42)O3)C[C@@H]1CC#N` (single isomer, unassigned) [Example 5a], the IC50 amounted to 1250 nM in the experiment with NCI-H358 cells and 18.7 nM in experiment [1].
Turning to `C=CC(=O)N1CCN(c2nc(OCC3(CN(C)C)CC3)nc3c2CCC2(CCCc4ccccc42)O3)C[C@@H]1CC#N` (single isomer, unassigned) [Example 12a], the values for the IC50 (with NCI-H358 cells; in experiment [1]) were 1330 nM and 99.7 nM, respectively.
In the case of `C=CC(=O)N1CCN(c2nc(OC[C@@H]3CCCN3C)nc3c2CCC2(CCC(C)(C)c4ccccc42)O3)C[C@@H]1CC#N` (single isomer, unassigned) [Example 6b], the IC50 in the experiment with NCI-H358 cells was 4370 nM; in experiment [1], 413 nM.
On to `C=C(F)C(=O)N1CCN(c2nc(OC[C@@H]3CCCN3C)nc3c2CCC2(CCCc4ccccc42)O3)C[C@@H]1CC#N` (single isomer, unassigned) [Example 17a], for which the IC50 in the experiment with NCI-H358 cells (Homo sapiens, NCI-H358, 2 h) was found to be 6680 nM; in experiment [1], 823 nM.
Take `C=CC(=O)N1CCN(c2nc(OC[C@@H]3CCCN3C)nc3c2CCC2(CCc4c2ccc2[nH]ncc42)O3)C[C@@H]1CC#N` (single isomer, unassigned) [Example 28b]: the IC50 came to 29400 nM with NCI-H358 cells and 2330 nM in experiment [1].
Consider `C=CC(=O)N1CCN(c2nc(OCC3(CN(C)C)CC3)nc3c2CCC2(CCCc4ccccc42)O3)C[C@@H]1CC#N` (single isomer, unassigned) [Example 12b], for which the IC50 in the experiment with NCI-H358 cells amounted to 5620 nM; in experiment [1] it was 728 nM.
For `C=CC(=O)N1CCN(c2nc(OC[C@@H]3CCCN3CC)nc3c2CCC2(CCCc4ccccc42)O3)C[C@@H]1CC#N` (single isomer, unassigned) [Example 15a] the same measures were 638 nM and 43.4 nM.
With `C=CC(=O)N1CCN(c2nc(OC[C@@H]3CCCN3C)nc3c2CCC2(CCc4ccccc42)O3)C[C@@H]1CC#N` (single isomer, unassigned) [Example 4b], the IC50 in the experiment with NCI-H358 cells came out at 2500 nM; in experiment [1], 164 nM.
In the case of `C=CC(=O)N1CCN(c2nc(OC[C@@H]3CCCN3CC)nc3c2CCC2(CCCc4ccccc42)O3)C[C@@H]1CC#N` (single isomer, unassigned) [Example 15b], the results for the IC50 (with NCI-H358 cells; in experiment [1]) were 1810 nM and 84 nM, respectively.
`C=CC(=O)N1CCN(c2nc(N3CC(N(C)C)C3)nc3c2CCC2(CCCc4ccccc42)O3)C[C@@H]1CC#N` (single isomer, unassigned) [Example 20a]: the IC50 in the experiment on NCI-H358 cells (Homo sapiens, NCI-H358, 2 h) is 1470 nM; in experiment [1], 41.8 nM.
`C=CC(=O)N1CCN(c2nc(OCC[C@@H]3CCCN3C)nc3c2CCC2(CCCc4ccccc42)O3)C[C@@H]1CC#N` (single isomer, unassigned) [Example 5b]: the IC50 was 5980 nM in the experiment with NCI-H358 cells and 274 nM in experiment [1].
As to `C=CC(=O)N1CCN(c2nc(OC[C@@H]3CCCN3C)nc3c2CCC2(O3)c3ccccc3CCC2C)C[C@@H]1CC#N` (single isomer, unassigned) [Example 10a], the IC50 worked out at 6640 nM with NCI-H358 cells (Homo sapiens, NCI-H358, 2 h) and 145 nM in experiment [1].
For `C=CC(=O)N1CCN(c2nc(OC[C@@H]3CCCN3C)nc3c2CCC2(CCCc4cccc(C)c42)O3)C[C@@H]1CC#N` (single isomer, unassigned) [Example 1b], the IC50 stood at 2860 nM in the experiment on NCI-H358 cells and 54.9 nM in experiment [1].
`C=CC(=O)N1CCN(c2nc(OC[C@@H]3CCCN3C)nc3c2CCC2(CCCc4ccccc42)O3)CC1` (single isomer, unassigned) [Example 21a]: the IC50 in the experiment on NCI-H358 cells (Homo sapiens, NCI-H358, 2 h) came to 10200 nM; in experiment [1], 5340 nM.
As for `C=CC(=O)N1CCN(c2nc(OC[C@@H]3CC(F)(F)CN3C)nc3c2CCC2(CCCc4ccccc42)O3)C[C@@H]1CC#N` (single isomer, unassigned) [Example 16a], the figures for the IC50 (in the experiment on NCI-H358 cells; in experiment [1]) were 246 nM and 18.9 nM, respectively.
Regarding `C=CC(=O)N1CCN(c2nc(OC[C@@H]3CCCN3C)nc3c2CCC2(CCCc4ccccc42)O3)[C@@H](C)C1` (stereo partly drawn) [Example 13a, 1-((3S)-3-methyl-4-(2′-(((S)-1-methylpyrrolidin-2-yl)methoxy)-3,4,5′,6′-tetrahydro-2H-spiro[naphthalene-1,7′-pyrano[2,3-d]pyrimidin]-4′-yl)piperazin-1-yl)prop-2-en-1-one], the IC50 in the experiment with NCI-H358 cells (Homo sapiens, NCI-H358, 2 h) came to 4980 nM; in experiment [1], 576 nM.
As for `C=CC(=O)N1CCN(c2nc(OC[C@@H]3CCCN3C)nc3c2CCC2(CCCc4cccc(C)c42)O3)CC1` (single isomer, unassigned) [Example 24a], the IC50 stood at 12900 nM in the experiment on NCI-H358 cells (Homo sapiens, NCI-H358, 2 h) and 2390 nM in experiment [1].
`C=CC(=O)N1CCN(c2nc(OC[C@@H]3CCCN3C)nc3c2CCC2(O3)c3ccccc3CC2(C)C)C[C@@H]1CC#N` (single isomer, unassigned) [Example 27a]: the IC50 is 30000 nM with NCI-H358 cells (Homo sapiens, NCI-H358, 2 h) and 1080 nM in experiment [1].
With `C=CC(=O)N1CCN(c2nc(OC[C@@H]3CCCN3C)nc3c2CCC2(CCCc4c(F)cccc42)O3)C[C@@H]1CC#N` (single isomer, unassigned) [Example 3b], the IC50 in the experiment with NCI-H358 cells came to 1120 nM; in experiment [1], 51 nM.
Turning to `C=CC(=O)N1CCN(c2nc(OC[C@@H]3CCCN3C)nc3c2CCC2(CC(C)c4ccccc42)O3)C[C@@H]1CC#N` (single isomer, unassigned) [Example 25a], the IC50 with NCI-H358 cells amounted to 1100 nM; in experiment [1] it was 14.2 nM.
Consider `C=CC(=O)N1CCN(c2nc(OC[C@@H]3CCCN3C)nc3c2CCC2(CC(C)c4ccccc42)O3)C[C@@H]1CC#N` (single isomer, unassigned) [Example 25d], for which the values for the IC50 (with NCI-H358 cells; in experiment [1]) were 8130 nM and 113 nM, respectively.
`C=CC(=O)N1CCN(c2nc(C(=O)N[C@H](C)CN(C)C)nc3c2CCC2(CCCc4cccc(C)c42)O3)CC1` (single isomer, unassigned) [Example 19a]: the IC50 with NCI-H358 cells (Homo sapiens, NCI-H358, 2 h) amounted to 30000 nM; in experiment [1], 8470 nM.
On to `C=CC(=O)N1CCN(c2nc(OC[C@@H]3CCCN3C)nc3c2CCC2(CCC(C)c4ccccc42)O3)C[C@@H]1CC#N` (single isomer, unassigned) [Example 9d], for which the IC50 is 2410 nM in the experiment on NCI-H358 cells and 149 nM in experiment [1].
Regarding `C=CC(=O)N1CCN(c2nc(OC[C@@H]3CCCN3C)nc3c2CCC2(CCc4c2ccc2[nH]ncc42)O3)C[C@@H]1CC#N` (single isomer, unassigned) [Example 28a], the IC50 was more than 30000 nM in the experiment on NCI-H358 cells (Homo sapiens, NCI-H358, 2 h) and 7840 nM in experiment [1].
On to `C=CC(=O)N1CCN(c2nc(OC[C@@H]3CCCN3C)nc3c2CCC2(CCC(C)c4ccccc42)O3)C[C@@H]1CC#N` (single isomer, unassigned) [Example 9b], for which the figures for the IC50 (in the experiment on NCI-H358 cells; in experiment [1]) were 1170 nM and 34.2 nM, respectively.
Turning to `C=CC(=O)N1CCN(c2nc(OC[C@@H]3CCCN3C)nc3c2CCC2(CCCc4c(C)cc(C)cc42)O3)C[C@@H]1CC#N` (single isomer, unassigned) [Example 11a], the IC50 in the experiment with NCI-H358 cells came out at 1800 nM; in experiment [1], 46.7 nM.
As for `C=CC(=O)N1CCN(c2nc(OC[C@@H]3CCCN3C)nc3c2CCC2(CCCc4cccc(Cl)c42)O3)CC1` (single isomer, unassigned) [Example 23a], the IC50 worked out at 26500 nM in the experiment with NCI-H358 cells (Homo sapiens, NCI-H358, 2 h) and 5070 nM in experiment [1].

A word on the IC50: it is the midpoint of a concentration-inhibition curve.
